The experiment concerns the target T1, alpha2B receptor (Homo sapiens, UniProt P18089).
T1 construct: expressed in transfected cells; host or cells: NIH-3T3
T1 sequence (P18089 1-450): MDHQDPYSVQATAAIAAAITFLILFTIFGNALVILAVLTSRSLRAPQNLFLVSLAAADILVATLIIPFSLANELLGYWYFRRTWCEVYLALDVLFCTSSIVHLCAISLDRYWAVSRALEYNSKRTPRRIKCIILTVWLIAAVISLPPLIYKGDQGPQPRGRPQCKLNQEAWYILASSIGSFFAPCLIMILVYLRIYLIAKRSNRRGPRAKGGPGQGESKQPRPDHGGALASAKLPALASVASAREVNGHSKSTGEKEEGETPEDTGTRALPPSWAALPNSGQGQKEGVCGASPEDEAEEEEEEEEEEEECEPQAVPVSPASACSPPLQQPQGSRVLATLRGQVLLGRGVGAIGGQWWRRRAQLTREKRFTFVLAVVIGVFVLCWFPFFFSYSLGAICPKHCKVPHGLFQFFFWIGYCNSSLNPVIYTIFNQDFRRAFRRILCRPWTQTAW
The experiment can be described thus: Receptor Selection and Amplification Technology (RSAT) assay, alpha2B. The settings on record: NIH-3T3 cells; for EC50: NA = not active at concentrations less than 10 micromolar, read-out: RSAT EC50 (nM) Alpha 2B; for fraction of activity of the standard (brimonidine) attained, Alpha 2B (number in parenthesis): ratio of maximal effect to that of standard full agonist brimonidine. The experiment is classed as cell-based. The text has this: The compounds of the invention are agonists of α2 adrenergic receptors, particularly they tend to be specific or selective agonists of α2B and/or to a lesser extent α2C adrenergic receptors, in preference over α2A adrenergic receptors. […] Al., 1995, Pharmacol. Toxicol. 76, pp. 308-311 (incorporated herein by reference) and is also described below. Another reference pertinent to this assay is Conklin et al. (1993) Nature 363:274-6, also incorporated herein by reference.
The RSAT assay measures a receptor-mediated loss of contact inhibition that results in selective proliferation of receptor-containing cells in a mixed population of confluent cells. The increase in cell number is assessed with an appropriate transfected marker gene such as β-galactosidase, the activity of which can be easily measured in a 96-well format. Receptors that activate the G protein, Gq, elicit this response. Alpha2 receptors, which normally couple to Gi, activate the RSAT response when coexpressed with a hybrid Gq protein that has a Gi receptor recognition domain, called Gq/i5^2.
NIH-3T3 cells are plated at a density of 2×10^6 cells in 15 cm dishes and maintained in Dulbecco's modified Eagle's medium supplemented with 10% calf serum. One day later, cells are cotransfected by calcium phosphate precipitation with mammalian expression plasmids encoding p-SV-β-galactosidase (5-10 μg), receptor (1-2 μg) and G protein (1-2 μg). 40 μg salmon sperm DNA may also be included in the transfection mixture. Fresh media is added on the following day and 1-2 days later, cells are harvested and frozen in 50 assay aliquots. Cells are thawed and 100 μl added to 100 μl aliquots of various concentrations of drugs in triplicate in 96-well dishes. Incubations continue 72-96 hr at 37°. After washing with phosphate-buffered saline, β-galactosidase enzyme activity is determined by adding 200 μl of the chromogenic substrate (consisting of 3.5 mM o-nitrophenyl-β-D-galactopyranoside and 0.5% nonidet P-40 in phosphate buffered saline), incubating overnight at 30 and measuring optical density at 420 nm. The absorbance is a measure of enzyme activity, which depends on cell number and reflects a receptor-mediated cell proliferation. The EC50 and maximal effect of each drug at each alpha2 receptor is determined. The efficacy or intrinsic activity is calculated as a ratio of the maximal effect of the drug to the maximal effect of a standard full agonist for each receptor subtype. Brimonidine, also called […], the chemical structure of which is shown below, is used as the standard agonist for the alpha2A, alpha2B and alpha2C receptors. [drawing 6]
The results of the RSAT assay with several exemplary compounds of the invention are disclosed in Table 3. […] NA stands for “not active” at concentrations less than 10 micromolar. As is known EC50 is the concentration at which half of a given compound's maximal activity is observed. It can be seen from the table that the compounds of the invention are specific or selective agonists of α2B and/or α2C adrenergic receptors, with no agonist like activity or only with insignificant agonist-like activity on α2A receptors.

The structures appear in SMILES notation.

In general, EC50 refers to the concentration at which the effect is half-maximal. As to `CCCC1=CCCCC1NC(=S)NCCO` (stereo not drawn) [Compound 30, 1-(2-Hydroxy-ethyl)-3-(2-propyl-cyclohex-2-enyl)-thiourea], the EC50 was determined as 78 nM and the “fraction of activity of the standard (brimonidine) attained, Alpha 2B (number in parenthesis)” value (from here on “fraction of activity of the standard”) is reported as “(0.71)”.

As for `CC1=CC(CNC(=S)NCCO)CCC1` (stereo not drawn) [Compound 20, 1-(2-Hydroxy-ethyl)-3-(3-methyl-cyclohex-2-enylmethyl)-thiourea], the EC50 came to 37 nM and the “fraction of activity of the standard” value is on record as “(0.78)”.

As for `OCCNC(=S)NCC1=C(Cl)CCCC1` [Compound 17, 1-(2-chloro-cyclohex-1-enylmethyl)-3-(2-hydroxy-ethyl)thiourea], the EC50 is 15 nM and the “fraction of activity of the standard” value was “(0.63)”.

As to `CC1CC=CCC1CNC(=S)NCCO` (stereo not drawn) [Compound 11, 1-(2-hydroxy-ethyl)-3-(6-methyl-cyclohex-3-enylmethyl)-thiourea], the EC50 was 20 nM and the “fraction of activity of the standard” value is “(0.93)”.

Take `OCCNC(=S)NCC1CCCCCC1` [Compound 10, 1-Cycloheptylmethyl-3-(2-hydroxy-ethyl)-thiourea]: the EC50 is 355 nM and the “fraction of activity of the standard” value is listed as “(0.54)”.

`CC1CCCCC1NC(=S)NCCO` (stereo not drawn) [Compound 41, 1-(2-Methyl-cyclohexyl)-3-(2-hydroxy-ethyl)-thiourea]: the EC50 was found to be 27 nM and the “fraction of activity of the standard” value was “(0.78)”.

Consider `CCC1=CC(CNC(=S)NCCO)CCC1` (stereo not drawn) [Compound 19, 1-(2-Hydroxy-ethyl)-3-(3-ethyl-cyclohex-2-enylmethyl)-thiourea], for which the EC50 is 55 nM and the “fraction of activity of the standard” value was “(0.46)”.

With `CCC[C@@H]1CCCC[C@H]1NC(=S)NCCO` [Compound 5, 1-(2-Hydroxy-ethyl)-3-((1R,2R)-2-propyl-cyclohexyl)-thiourea], the EC50 turned out to be 216 nM and the “fraction of activity of the standard” value is reported as “(0.49)”.

As to `CCC1=CC(NC(=S)NCCO)CCC1` (stereo not drawn) [Compound 32, 1-(2-Hydroxy-ethyl)-3-(3-ethyl-cyclohex-2-enyl)-thiourea], the EC50 is 96 nM and the “fraction of activity of the standard” value is recorded as “(0.37)”.

`CCC1=C(CNC(=S)NCCO)CCCC1` [Compound 24, 1-(2-Hydroxy-ethyl)-3-(2-ethyl-cyclohex-1-enylmethyl)-thiourea]: the EC50 is 772 nM and the “fraction of activity of the standard” value was “(0.71)”.

As for `CCC1=CCCCC1CNC(=S)NCCO` (stereo not drawn) [Compound 22, 1-(2-Hydroxy-ethyl)-3-(2-ethyl-cyclohex-2-enylmethyl)-thiourea], the EC50 came to 126 nM and the “fraction of activity of the standard” value was “(0.73)”.

On to `OCCNC(=S)NCC1=CCCCC1` [Compound 3, 1-(Cyclohex-1-enylmethyl)-3-(2-hydroxy-ethyl)-thiourea], for which the EC50 stood at 877 nM and the “fraction of activity of the standard” value was “(0.8)”.

Turning to `CC1C=C(CNC(=S)NCCO)CC1` (stereo not drawn) [Compound 28, 1-(2-Hydroxy-ethyl)-3-(3-methyl-cyclopent-1-enylmethyl)-thiourea], the EC50 turned out to be 544 nM and the “fraction of activity of the standard” value is on record as “(0.52)”.

On to `CC1=C(CNC(=S)NCCO)CCCC1` [Compound 23, 1-(2-Hydroxy-ethyl)-3-(2-methyl-cyclohex-1-enylmethyl)-thiourea], for which the EC50 amounted to 125 nM and the “fraction of activity of the standard” value is on record as “(0.68)”.

In the case of `CCCCC1=CCCC1CNC(=S)NCCO` (stereo not drawn) [Compound 26, 1-(2-Butyl-cyclopent-2-enylmethyl)-3-(2-hydroxy-ethyl)-thiourea], the EC50 came out at 816 nM and the “fraction of activity of the standard” value was “(0.48)”.

On to `CC(C)[C@@H]1CC[C@@H](C)C[C@H]1NC(=S)NCCO` [Compound 2, 1-(2-Hydroxy-ethyl)-3-(1R,2S,5R-2-isopropyl-5-methyl-cyclohexyl)-thiourea], for which the EC50 was 189 nM and the “fraction of activity of the standard” value is “(0.54)”.

With `CC1=CC(NC(=S)NCCO)CCC1` (stereo not drawn) [Compound 16, 1-(2-Hydroxy-ethyl)-3-(3-methyl-cyclohex-2-enyl)-thiourea], the EC50 was found to be 58 nM and the “fraction of activity of the standard” value is given as “(0.54)”.

In the case of `OCCNC(=S)N[C@H]1CC[C@H](O)CC1` [Compound 7, 1-(4-Hydroxy-cyclohexyl)-3-(2-hydroxy-ethyl)-thiourea], the EC50 was greater than 2000 nM and the “fraction of activity of the standard” value is recorded as “(0.32)”.

`CC[C@H]1CC[C@H](NC(=S)NCCO)CC1` [Compound 36, (trans)-1-(2-Hydroxy-ethyl)-3-(4-ethyl-cyclohexyl)-thiourea]: the EC50 is 97 nM and the “fraction of activity of the standard” value is “(0.53)”.

Turning to `OCCNC(=S)NCC1C=CCCC1` (stereo not drawn) [Compound 4, 1-(Cyclohex-2-enylmethyl)-3-(2-hydroxy-ethyl)-thiourea], the EC50 was determined as 66 nM and the “fraction of activity of the standard” value is reported as “(0.63)”.

Turning to `C[C@H]1CCC[C@H](NC(=S)NCCO)C1` (relative stereo) [Compound 38, (trans)-1-(2-Hydroxy-ethyl)-3-(3-methyl-cyclohexyl)-thiourea], the EC50 amounted to 1150 nM and the “fraction of activity of the standard” value is reported as “(0.4)”.

On to `C[C@H]1CCC[C@H](NC(=S)NCCO)C1` (single isomer, unassigned) [Compound 39, (cis)-1-(2-Hydroxy-ethyl)-3-(3-methyl-cyclohexyl)-thiourea], for which the EC50 was determined as 80 nM and the “fraction of activity of the standard” value is reported as “(0.65)”.

For the molecule `OCCNC(=S)NC1CCCCC1` [Compound 6, 1-Cyclohexyl-3-(2-hydroxy-ethyl)-thiourea], the EC50 is 311 nM and the “fraction of activity of the standard” value is reported as “(0.28)”.

On to `OCCNC(=S)NC1CCCC=C1Br` (stereo not drawn) [Compound 29, 1-(2-Bromo-cyclohex-2-enyl)-3-(2-Hydroxy-ethyl)-thiourea], for which the EC50 turned out to be 90 nM and the “fraction of activity of the standard” value was “(0.84)”.

On to `CC1=CCCCC1CNC(=S)NCCO` (stereo not drawn) [Compound 21, 1-(2-Hydroxy-ethyl)-3-(2-methyl-cyclohex-2-enylmethyl)-thiourea], for which the EC50 came to 72 nM and the “fraction of activity of the standard” value is on record as “(0.87)”.

`OCCNC(=S)NCC1CCCC1` [Compound 9, 1-Cyclopentylmethyl-3-(2-hydroxy-ethyl)-thiourea]: the EC50 was 441 nM and the “fraction of activity of the standard” value was “(0.62)”.

Turning to `OCCNC(=S)NCC1CCCCC1` [Compound 1, 1-Cyclohexylmethyl-3-(2-hydroxy-ethyl)-thiourea], the EC50 was 204 nM and the “fraction of activity of the standard” value is on record as “(0.61)”.

Values taken from patent US6534542B2, “(2-hydroxy)ethyl-thioureas useful as modulators of α2B adrenergic receptors” (Allergen Sales, Inc., priority 2001, dated 2003).
